Source: article PMC11432330, “Novel Drug-like HsrA Inhibitors Exhibit Potent Narrow-Spectrum Antimicrobial Activities against Helicobacter pylori” (International Journal of Molecular Sciences, 2024)

Test system: H. pylori 26695
Experiment: In vivo inhibition of HsrA: RNA-Seq transcriptomic analysis of exposed cells
Format: cell-based, Helicobacter pylori
Settings: for log2 Fold Change: exposed to lethal concentrations vs control
Method: Bacterial growth from three blood agar plates of H. pylori ATCC 700392 (aka 26695) incubated for 48 h at 37 °C under microaerobic conditions was aseptically resuspended in BHI + FBS and adjusted to 10^7 CFU/mL. BHI broth cultures were incubated microaerobically at 37 °C for 24 h. […] At this time, bacterial growth was stopped by adding 1.5 mL ice-cold RNA stop solution (95% absolute ethanol, 5% acid-buffered phenol) and subsequently incubated on ice. Control samples were exposed to the same amount of DMSO instead of the inhibitor. Helicobacter cells from all samples were harvested by centrifugation (4000 rpm at 4 °C for 10 min), then the pellets were quickly frozen by immersion in liquid nitrogen and stored at −80 °C.
RNA-Seq analysis was performed by GENEWIZ (Azenta Life Sciences, Leipzig, Germany). Frozen cell pellets from two biological replicates of each treatment condition were properly submitted to GENEWIZ in dry ice. RNA-Seq libraries were prepared according to standard protocols via rRNA depletion, RNA fragmentation and random priming, reverse transcription, 5’-phosphorylation and dA-tailing of cDNAs, adaptor ligation, and PCR enrichment. Once the quality of each library was confirmed, they were sequenced on an Illumina NovaSeq 6000 (Illumina, San Diego, CA, USA) with 150-bp paired-ends. Raw sequence reads were filtered to remove possible adapter sequences and nucleotides with poor quality using Trimmomatic v.0.36 [105]. The trimmed reads were subsequently mapped to the H. pylori strain 26695 reference genome NC_000915.1 available on NCBI, by using the Bowtie2 aligner v.2.2.6 [106]. Unique gene hit counts were calculated by using featureCounts from the Subread package v.1.5.2. Only unique reads that fell within the gene regions were counted. Using DESeq2 [108], a comparison of the gene expression between the control and treated groups of samples was performed. The Wald test was used to generate p-values and log2 fold changes. Genes with an adjusted p-value < 0.05 and absolute log2 fold change >1 were considered as differentially expressed genes (DEGs) for each comparison. The RNA-Seq data generated in this study have been deposited in ArrayExpress with the accession number E-MTAB-14255.

[1] = RNA-Seq, 4 × MIC, vs control samples

SMILES: NC(=NOC(=O)Nc1ccc(Cl)cc1)c1csc([N+](=O)[O-])c1 [Ligand V, N′-{[(4-chloroanilino)carbonyl]}oxy-5-nitrothiophene-3-carboximidamide]
- Exposure until log10 CFU/mL diminished in one unit (4 × MIC, ~3 × 10^7 CFU/mL H. pylori 26695): ~ 2 h
- Depletion in gene expression of 50S ribosomal proteins L21, L35, L27 and 30S ribosomal protein S10 (RNA-Seq, 4 × MIC): > 5.8 fold
- Downregulation of ferrous iron transporter FeoB (RNA-Seq, 4 × MIC): ~ 2.5 fold
- ORFs of the H. pylori genome with influenced expression (RNA-Seq, 4 × MIC): 23%
- Upregulation of ferritin (pfr, hp0653) (RNA-Seq, 4 × MIC): 4.7 fold
- Upregulation of ferritin-like iron-binding protein NapA (RNA-Seq, 4 × MIC): 2.3 fold
- Genes downregulated [1]: 155
- Genes upregulated [1]: 212
- ORF with significantly changed transcript levels (RNA-Seq, 4 × MIC, absolute log2 fold change > 1, p-value < 0.05): 367
- log2 Fold Change HP0013 (gene HP0013, lethal concentrations of V vs control): 0.182
- log2 Fold Change HP0018 (gene HP0018, lethal concentrations of V vs control): 0.356
- log2 Fold Change (gene HP0022): -0.512
- log2 Fold Change HP0028 (gene HP0028, lethal concentrations of V vs control): 0.408
- log2 Fold Change (gene HP0029): -0.496
- log2 Fold Change HP0030 (gene HP0030, lethal concentrations of V vs control): 0.184
- log2 Fold Change HP0033 (gene HP0033, lethal concentrations of V vs control): 0.361
- log2 Fold Change (gene HP0043): -0.566
- log2 Fold Change (gene HP0054): -0.519
- log2 Fold Change HP0063 (gene HP0063, lethal concentrations of V vs control): 0.326
- log2 Fold Change HP0066 (gene HP0066, lethal concentrations of V vs control): 0.182
- log2 Fold Change HP0081 (gene HP0081, lethal concentrations of V vs control): 0.173
- log2 Fold Change HP0082 (gene HP0082, lethal concentrations of V vs control): 0.224
- log2 Fold Change HP0089 (gene HP0089, lethal concentrations of V vs control): 0.244
- log2 Fold Change (gene HP0099): -0.573
- log2 Fold Change HP0102 (gene HP0102, lethal concentrations of V vs control): 0.190
- log2 Fold Change HP0104 (gene HP0104, lethal concentrations of V vs control): 0.451
- log2 Fold Change HP0106 (gene HP0106, lethal concentrations of V vs control): 0.286
- log2 Fold Change HP0121 (gene HP0121, lethal concentrations of V vs control): 0.408
- log2 Fold Change HP0138 (gene HP0138, lethal concentrations of V vs control): 0.430
- log2 Fold Change (gene HP0141): -0.503
- log2 Fold Change (gene HP0142): -0.490
- log2 Fold Change HP0144 (gene HP0144, lethal concentrations of V vs control): 0.204
- log2 Fold Change HP0145 (gene HP0145, lethal concentrations of V vs control): 0.164
- log2 Fold Change (gene HP0149): -0.471
- log2 Fold Change (gene HP0151): 1.340
- log2 Fold Change HP0152 (gene HP0152, lethal concentrations of V vs control): 0.161
- log2 Fold Change HP0155 (gene HP0155, lethal concentrations of V vs control): 0.192
- log2 Fold Change (gene HP0159): -0.532
- log2 Fold Change HP0166 (gene HP0166, lethal concentrations of V vs control): 0.208
- log2 Fold Change HP0170 (gene HP0170, lethal concentrations of V vs control): 0.476
- log2 Fold Change HP0186 (gene HP0186, lethal concentrations of V vs control): 0.474
- log2 Fold Change HP0195 (gene HP0195, lethal concentrations of V vs control): 0.229
- log2 Fold Change (gene HP0202): -0.569
- log2 Fold Change HP0209 (gene HP0209, lethal concentrations of V vs control): 0.364
- log2 Fold Change HP0214 (gene HP0214, lethal concentrations of V vs control): 0.273
- log2 Fold Change HP0215 (gene HP0215, lethal concentrations of V vs control): 0.474
- log2 Fold Change HP0221 (gene HP0221, lethal concentrations of V vs control): 0.231
- log2 Fold Change (gene HP0222): -0.475
- log2 Fold Change HP0224 (gene HP0224, lethal concentrations of V vs control): 0.431
- log2 Fold Change HP0230 (gene HP0230, lethal concentrations of V vs control): 0.223
- log2 Fold Change HP0234 (gene HP0234, lethal concentrations of V vs control): 0.200
- log2 Fold Change (gene HP0257): -0.600
- log2 Fold Change HP0263 (gene HP0263, lethal concentrations of V vs control): 0.370
- log2 Fold Change HP0267 (gene HP0267, lethal concentrations of V vs control): 0.453
- log2 Fold Change (gene HP0268): -0.504
- log2 Fold Change (gene HP0285): -0.482
- log2 Fold Change HP0290 (gene HP0290, lethal concentrations of V vs control): 0.227
- log2 Fold Change (gene HP0293): -0.482
- log2 Fold Change HP0315 (gene HP0315, lethal concentrations of V vs control): 0.371
- log2 Fold Change HP0316 (gene HP0316, lethal concentrations of V vs control): 0.320
- log2 Fold Change HP0322 (gene HP0322, lethal concentrations of V vs control): 0.305
- log2 Fold Change HP0329 (gene HP0329, lethal concentrations of V vs control): 0.261
- log2 Fold Change HP0338 (gene HP0338, lethal concentrations of V vs control): 0.386
- log2 Fold Change HP0339 (gene HP0339, lethal concentrations of V vs control): 0.459
- log2 Fold Change HP0340 (gene HP0340, lethal concentrations of V vs control): 0.379
- log2 Fold Change HP0348 (gene HP0348, lethal concentrations of V vs control): 0.281
- log2 Fold Change HP0360 (gene HP0360, lethal concentrations of V vs control): 0.234
- log2 Fold Change HP0385 (gene HP0385, lethal concentrations of V vs control): 0.352
- log2 Fold Change HP0391 (gene HP0391, lethal concentrations of V vs control): 0.386
- log2 Fold Change HP0393 (gene HP0393, lethal concentrations of V vs control): 0.172
- log2 Fold Change (gene HP0396): -0.496
- log2 Fold Change HP0405 (gene HP0405, lethal concentrations of V vs control): 0.308
- log2 Fold Change HP0408 (gene HP0408, lethal concentrations of V vs control): 0.201
- log2 Fold Change HP0416 (gene HP0416, lethal concentrations of V vs control): 0.330
- log2 Fold Change (gene HP0418): -0.527
- log2 Fold Change HP0420 (gene HP0420, lethal concentrations of V vs control): 0.289
- log2 Fold Change HP0437 (gene HP0437, lethal concentrations of V vs control): 0.205
- log2 Fold Change HP0440 (gene HP0440, lethal concentrations of V vs control): 0.156
- log2 Fold Change HP0441 (gene HP0441, lethal concentrations of V vs control): 0.254
- log2 Fold Change HP0447 (gene HP0447, lethal concentrations of V vs control): 0.436
